From patent US12157746B2, “Tetrahydro-1H-pyrazino[2,1-a]isoindolylquinoline compounds for the treatment of autoimmune disease” (F. HOFFMANN-LA ROCHE AG, priority 2018, dated 2024)
pIC50: −log10 of the molar value.

Experiments:
human TLR8 = biological target: T1, human TLR8 (Homo sapiens, UniProt Q9NR97); experiment: HEK293-Blue-hTLR-8 cells assay; format: cell-based; details: HEK293-Blue-hTLR8 cells, R848 stimulation, 20 hrs, SEAP reporter; read-out: HEK/hTLR8 IC50
T1 sequence (Q9NR97 27-1041): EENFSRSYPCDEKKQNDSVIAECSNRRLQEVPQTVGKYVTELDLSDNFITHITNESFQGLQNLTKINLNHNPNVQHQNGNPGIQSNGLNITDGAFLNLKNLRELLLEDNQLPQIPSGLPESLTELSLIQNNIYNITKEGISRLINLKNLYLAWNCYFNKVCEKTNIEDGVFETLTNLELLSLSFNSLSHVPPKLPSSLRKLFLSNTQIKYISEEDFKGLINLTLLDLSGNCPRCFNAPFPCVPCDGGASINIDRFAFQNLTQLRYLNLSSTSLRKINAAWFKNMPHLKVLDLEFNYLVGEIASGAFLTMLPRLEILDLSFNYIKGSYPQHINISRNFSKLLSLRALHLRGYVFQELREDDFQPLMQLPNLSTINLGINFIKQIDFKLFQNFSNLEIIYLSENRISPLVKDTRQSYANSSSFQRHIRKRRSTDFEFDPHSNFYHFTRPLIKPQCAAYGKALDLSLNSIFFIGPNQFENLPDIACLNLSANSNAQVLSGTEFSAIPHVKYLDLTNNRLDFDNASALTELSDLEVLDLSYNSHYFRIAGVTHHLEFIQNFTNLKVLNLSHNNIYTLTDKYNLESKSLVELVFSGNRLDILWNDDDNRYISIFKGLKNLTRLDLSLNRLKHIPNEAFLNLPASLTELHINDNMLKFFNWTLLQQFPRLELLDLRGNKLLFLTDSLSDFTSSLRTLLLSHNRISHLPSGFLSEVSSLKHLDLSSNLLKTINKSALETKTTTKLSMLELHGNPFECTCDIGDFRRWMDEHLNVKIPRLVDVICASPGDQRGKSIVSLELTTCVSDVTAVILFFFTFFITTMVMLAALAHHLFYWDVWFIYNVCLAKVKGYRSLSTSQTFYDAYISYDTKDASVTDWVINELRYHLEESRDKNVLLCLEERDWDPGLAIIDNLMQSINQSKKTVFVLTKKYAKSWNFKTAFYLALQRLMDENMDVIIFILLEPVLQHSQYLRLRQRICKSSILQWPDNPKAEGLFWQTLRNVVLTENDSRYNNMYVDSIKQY
Description: HEK293-Blue-hTLR-8 Cells Assay:
A stable HEK293-Blue-hTLR-8 cell line was purchased from InvivoGen (Cat. #: hkb-htlr8, San Diego, California, USA). These cells were originally designed for studying the stimulation of human TLR8 by monitoring the activation of NF-κB. A SEAP (secreted embryonic alkaline phosphatase) reporter gene was placed under the control of the IFN-β minimal promoter fused to five NF-κB and AP-1-binding sites. The SEAP was induced by activating NF-κB and AP-1 via stimulating HEK-Blue hTLR8 cells with TLR8 ligands. Therefore the reporter expression was declined by TLR8 antagonist under the stimulation of a ligand, such as R848, for incubation of 20 hrs. The cell culture supernatant SEAP reporter activity was determined using QUANTI-Blue™kit (Cat. #: rep-qb1, Invivogen, San Diego, Ca, USA) at a wavelength of 640 nm, a detection medium that turns purple or blue in the presence of alkaline phosphatase.
HEK293-Blue-hTLR8 cells were incubated at a density of 250,000-450,000 cells/mL in a volume of 170 μL in a 96-well plate in Dulbecco's Modified Eagle's medium (DMEM) containing 4.5 g/L glucose, 50 U/mL penicillin, […], […], 2 mM L-glutamine, 10% (v/v) heat-inactivated fetal bovine serum with addition of 20 μL test compound 1n a serial dilution in the presence of final DMSO at 1% and 10 μL of 60 uM R848 in above DMEM, perform incubation under 37° C. in a CO2 incubator for 20 hrs. Then 20 μL of the supernatant from each well was incubated with 180 μL Quanti-blue substrate solution at 37° C. for 2 hrs and the absorbance was read at 620-655 nm using a spectrophotometer. The signaling pathway that TLR8 activation leads to downstream NF-κB activation has been widely accepted, and therefore similar reporter assay was modified for evaluating TLR8 antagonist.

[1] = Human microsomal stability assay; format: in vitro ADME; details: human liver microsomes 0.5 mg/mL, 37° C., pH 7.4, NADPH regenerating system, 0-30 minutes
Description: Human Microsomal Stability Assay
Human liver microsomes (Cat. NO.: 452117, Corning, USA) were preincubated with test compound for 10 minutes at 37° C. in 100 mM potassium phosphate buffer, pH 7.4. The reactions were initiated by adding NADPH regenerating system. The final incubation mixtures contained […] test compound, 0.5 mg/mL liver microsomal protein, 1 mM MgCl2, 1 mM NADP, 1 unit/mL isocitric dehydrogenase and 6 mM isocitric acid in 100 mM potassium phosphate buffer, pH 7.4. After incubation times of 0, 3, 6, 9, 15 and 30 minutes at 37° C., 300 μL of cold ACN (including internal standard) was added to 100 μL incubation mixture to terminate the reaction. Following precipitation and centrifugation, 100 μL supernatant will be taken out and added 300 uL water. The amount of compound remaining in the samples was determined by LC-MS/MS. Controls of no NADPH regenerating system at zero and 30 minutes were also prepared and analyzed. The results were categorized as: low (<7.0 mLJmin/kg), medium (7.0-16.2 mL/min/kg) and high (16.2-23.2 mLJmin/kg).

Row | SMILES | pIC50 (human TLR8) | CL (h) [1] [mL/min/kg]
1 | COC1CN(c2ccc3c(c2)CN2C3CN(c3ccc(C#N)c4ncccc34)C[C@H]2C)CC1N (single isomer, unassigned) [Example 16B] | > 8.49 | 8.1
2 | C[C@@H]1CN(c2ccc(C#N)c3nccnc23)C[C@@H]2c3ccc(N4CCNCC4)cc3CN12 [Example 7, 8-[(4R,10bS)-4-methyl-8-piperazin-1-yl-3,4,6,10b-tetrahydro-1H-pyrazino[2,1-a]isoindol-2-yl]quinoxaline-5-carbonitrile] | > 8.49 | 7.8
3 | C[C@@H]1CN(c2ccc(C#N)n3nccc23)C[C@@H]2c3ccc(N4C[C@H](N)[C@@](C)(O)C4)cc3CN12 [Example 109, 4-[(4R,10bS)-8-[(3S,4S)-4-amino-3-hydroxy-3-methyl-pyrrolidin-1-yl]-4-methyl-3,4,6,10b-tetrahydro-1H-pyrazino[2,1-a]isoindol-2-yl]pyrazolo[1,5-a]pyridine-7-carbonitrile] | 8.17 | 
4 | C[C@@H]1CN(c2ccc(C#N)c3ncccc23)C[C@@H]2c3ccc(N[C@@H]4CNC[C@H]4F)cc3CN12 [Example 33, 5-[(4R,10bS)-8-[[(3R,4R)-4-fluoropyrrolidin-3-yl]amino]-4-methyl-3,4,6,10b-tetrahydro-1H-pyrazino[2,1-a]isoindol-2-yl]quinoline-8-carbonitrile] | > 8.49 | 
5 | C[C@@H]1CN(c2ccc(C#N)c3ncccc23)C[C@@H]2c3ccc(N4C[C@H]5NCCO[C@@H]5C4)cc3CN12 [Example 44, 5-[(4R,10bS)-4-methyl-8-[(4aR,7aR)-3,4,4a,5,7,7a-hexahydro-2H-pyrrolo[3,4-b][1,4]oxazin-6-yl]-3,4,6,10b-tetrahydro-1H-pyrazino[2,1-a]isoindol-2-yl]quinoline-8-carbonitrile] | 9.40 | 
6 | CN[C@H]1CN(c2ccc3c(c2)CN2[C@H](C)CN(c4ccc(C#N)c5ncccc45)C[C@H]32)C[C@@H]1O [Example 42, 5-[(4R,10bS)-8-[(3S,4S)-3-hydroxy-4-(methylamino)pyrrolidin-1-yl]-4-methyl-3,4,6,10b-tetrahydro-1H-pyrazino[2,1-a]isoindol-2-yl]quinoline-8-carbonitrile] | > 8.49 | 
7 | C[C@@H]1CN(c2ccc3c(c2)CN2[C@H](C)CN(c4ccc(C#N)n5nccc45)C[C@H]32)CCN1 [Example 97, 4-[(4R,10bS)-4-methyl-8-[(3R)-3-methylpiperazin-1-yl]-3,4,6,10b-tetrahydro-1H-pyrazino[2,1-a]isoindol-2-yl]pyrazolo[1,5-a]pyridine-7-carbonitrile] | 9.00 | 
8 | C[C@@H]1CN(c2ccc(C#N)n3nccc23)C[C@@H]2c3ccc(N4C[C@H](N)[C@@H](O)C4)cc3CN12 [Example 111, 4-[(4R,10bS)-8-[(3S,4S)-3-amino-4-hydroxy-pyrrolidin-1-yl]-4-methyl-3,4,6,10b-tetrahydro-1H-pyrazino[2,1-a]isoindol-2-yl]pyrazolo[1,5-a]pyridine-7-carbonitrile] | 8.70 | 
9 | [2H]c1ccc2c(N3C[C@@H](C)N4Cc5cc(N[C@H]6CNC[C@H]6F)ccc5[C@H]4C3)ccc(C#N)c2n1 [Example 91, 5-[(4R,10bS)-8-[[(3S,4R)-4-fluoropyrrolidin-3-yl]amino]-4-methyl-3,4,6,10b-tetrahydro-1H-pyrazino[2,1-a]isoindol-2-yl]-2-deuterio-quinoline-8-carbonitrile] | 9.22 | 

Now from value to compound:

Row | pIC50 (human TLR8) | CL (h) [1] [mL/min/kg] | SMILES
10 | > 8.49 | 6.2 | C[C@@H]1CN(c2ccc(C#N)c3ncccc23)C[C@@H]2c3ccc(N4C[C@@H](N)[C@](C)(O)C4)cc3CN12 [Example 45, 5-[(4R,10bS)-4-methyl-8-[trans-(3R,4R)-4-amino-3-hydroxy-3-methyl-pyrrolidin-1-yl]-3,4,6,10b-tetrahydro-1H-pyrazino[2,1-a]isoindol-2-yl]quinoline-8-carbonitrile]
11 | > 8.49 | 6.2 | C[C@@H]1CN(c2ccc(C#N)c3ncccc23)C[C@@H]2c3ccc(N4CC5(CNC5)C4)cc3CN12 [Example 36, 5-[(4R,10bS)-8-(2,6-diazaspiro[3.3]heptan-2-yl)-4-methyl-3,4,6,10b-tetrahydro-1H-pyrazino[2,1-a]isoindol-2-yl]quinoline-8-carbonitrile]
12 | > 8.49 | 8.6 | C[C@@H]1CN(c2ccc(C#N)c3ncccc23)C[C@@H]2c3ccc(N4CCNC[C@H](O)C4)cc3CN12 [Example 53A, 5-[(4R,10bS)-8-[(6S)-6-hydroxy-1,4-diazepan-1-yl]-4-methyl-3,4,6,10b-tetrahydro-1H-pyrazino[2,1-a]isoindol-2-yl]quinoline-8-carbonitrile]
13 | > 8.49 |  | C[C@@H]1CN(c2ccc(C#N)c3ncccc23)C[C@@H]2c3ccc(N4CCNC[C@@H](O)C4)cc3CN12 [Example 53B, 5-[(4R,10bS)-8-[(6R)-6-hydroxy-1,4-diazepan-1-yl]-4-methyl-3,4,6,10b-tetrahydro-1H-pyrazino[2,1-a]isoindol-2-yl]quinoline-8-carbonitrile]
14 | > 9.52 |  | C[C@@H]1CN(c2ccc(C#N)c3ncccc23)C[C@@H]2c3ccc(N4CCC(C)(N)CC4)cc3CN12 [Example 51, 5-[(4R,10bS)-8-(4-amino-4-methyl-1-piperidyl)-4-methyl-3,4,6,10b-tetrahydro-1H-pyrazino[2,1-a]isoindol-2-yl]quinoline-8-carbonitrile]
15 | > 8.49 |  | C[C@@H]1CN(c2ccc(C#N)c3ncccc23)C[C@@H]2c3ccc(N4CC(N)C5(COC5)C4)cc3CN12 (stereo partly drawn) [Example 18, 5-[(4R,10bS)-8-(5-amino-2-oxa-7-azaspiro[3.4]octan-7-yl)-4-methyl-3,4,6,10b-tetrahydro-1H-pyrazino[2,1-a]isoindol-2-yl]quinoline-8-carbonitrile]
16 | > 8.49 |  | C[C@@H]1CN(c2ccc(C#N)c3ncccc23)C[C@@H]2c3ccc(N4CCNC[C@](C)(O)C4)cc3CN12 [Example 55A, 5-[(4R,10bS)-8-[(6S)-6-hydroxy-6-methyl-1,4-diazepan-1-yl]-4-methyl-3,4,6,10b-tetrahydro-1H-pyrazino[2,1-a]isoindol-2-yl]quinoline-8-carbonitrile]
17 | > 8.49 |  | C[C@@H]1CN(c2ccc(C#N)c3ncccc23)C[C@@H]2c3ccc(N4CC(N)C4)cc3CN12 [Example 22, 5-[(4R,10bS)-8-(3-aminoazetidin-1-yl)-4-methyl-3,4,6,10b-tetrahydro-1H-pyrazino[2,1-a]isoindol-2-yl]quinoline-8-carbonitrile]
